According to PubChem BioAssay AID328 (DTP/NCI, 2004):
Toxic doses and inconclusive results are not listed. Starred links: 1 amine or outer side, 2 acyl side, 3 side chain; linkers in the order of their positions; H or OH if unused. Positions of bridges follow the written chain, without caps; N, C: chain ends. Non-standard residues stand in square brackets, D forms with d. Residues, ends and D or L forms follow the SMILES beside them. Chains are numbered I, II in the order given. Actinocin(1to9) = Cc1c2oc3c(C)ccc(C(=O)[*:2])c3nc-2c(C(=O)[*:1])c(N)c1=O; NMeV = CN[CH](C(=O)O)C(C)C; Sar = CNCC(=O)O

Tested on: BDF1 mice, P388 leukemia ip, median survival T/C
Experiment: NCI In Vivo Anticancer Drug Screen. Data for tumor model P388 Leukemia (intraperitoneal) in B6D2F1 (BDF1) mice
Conditions: endpoint: median survival time, higher = longer survival
How it was run: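 Read-out is survival of treated animals expressed relative to the vehicle group, as a T/C ratio.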

SMILES: CCC(C)C1NC(=O)C(NC(=O)c2c3nc4c(C(=O)NC5C(=O)NC(C(C)CC)C(=O)N6CCCC6C(=O)N(C)CC(=O)N(C)C(C(C)C)C(=O)OC5C)ccc(C)c4oc-3c(C)c(=O)c2N)C(C)OC(=O)C(C(C)C)N(C)C(=O)CN(C)C(=O)C2CCCN2C1=O (configuration not stated) (I: TIP[Sar][NMeV] / II: TIP[Sar][NMeV]; ester I:1-I:C, II:1-II:C; linker I:N-II:N via Actinocin(1to9); configuration not given here)
- T/C (dose: 0.05 mg/kg/injection, schedule: Q01DX010 (ip), vehicle: saline): 245 % of control
- T/C (dose: 0.1 mg/kg/injection, schedule: Q01DX010 (ip), vehicle: saline): 300 % of control
- T/C (dose: 0.2 mg/kg/injection, schedule: Q01DX001 (ip), vehicle: water): 162 % of control
- T/C (dose: 0.4 mg/kg/injection, schedule: Q01DX001 (ip), vehicle: water): 157 % of control
- T/C (dose: 0.8 mg/kg/injection, schedule: Q01DX001 (ip), vehicle: water): 166 % of control
- T/C (dose: 1.6 mg/kg/injection, schedule: Q01DX001 (ip), vehicle: water): 86 % of control
- T/C (dose: 3.1 micrograms/kg/injection, schedule: Q01DX001 (ip), vehicle: saline): 113 % of control
- T/C (dose: 3.1 micrograms/kg/injection, schedule: Q01DX010 (ip), vehicle: saline): 180 % of control
- T/C (dose: 3.1 micrograms/kg/injection, schedule: Q04DX003 (ip), vehicle: saline): 109 % of control
- T/C (dose: 6.2 micrograms/kg/injection, schedule: Q01DX010 (ip), vehicle: saline): 175 % of control
- T/C (dose: 6.3 micrograms/kg/injection, schedule: Q01DX001 (ip), vehicle: saline): 118 % of control
- T/C (dose: 6.3 micrograms/kg/injection, schedule: Q04DX003 (ip), vehicle: saline): 118 % of control
- T/C (dose: 12.5 micrograms/kg/injection, schedule: Q01DX001 (ip), vehicle: saline): 122 % of control
- T/C (dose: 12.5 micrograms/kg/injection, schedule: Q01DX009 (ip), vehicle: water): 170 % of control
- T/C (dose: 12.5 micrograms/kg/injection, schedule: Q01DX010 (ip), vehicle: saline): 185 % of control
- T/C (dose: 25.0 micrograms/kg/injection, schedule: Q01DX001 (ip), vehicle: saline): 122 % of control
- T/C (dose: 25.0 micrograms/kg/injection, schedule: Q01DX009 (ip), vehicle: water): 189 % of control
- T/C (dose: 25.0 micrograms/kg/injection, schedule: Q01DX010 (ip), vehicle: saline): 220 % of control
- T/C (dose: 25.0 micrograms/kg/injection, schedule: Q04DX003 (ip), vehicle: saline): 150 % of control
- T/C (dose: 50.0 micrograms/kg/injection, schedule: Q01DX009 (ip), vehicle: water): 200 % of control
- T/C (dose: 50.0 micrograms/kg/injection, schedule: Q01DX010 (ip), vehicle: saline): 215 % of control
- T/C (dose: 50.0 micrograms/kg/injection, schedule: Q04DX003 (ip), vehicle: saline): 181 % of control
- T/C (dose: 75.0 micrograms/kg/injection, schedule: Q04DX003 (ip), vehicle: water): 162 % of control
- T/C (dose: 100.0 micrograms/kg/injection, schedule: Q01DX009 (ip), vehicle: water): 206 % of control
- T/C (dose: 100.0 micrograms/kg/injection, schedule: Q01DX010 (ip), vehicle: saline): 295 % of control
- T/C (dose: 100.0 micrograms/kg/injection, schedule: Q04DX003 (ip), vehicle: saline): 190 % of control
- T/C (dose: 150.0 micrograms/kg/injection, schedule: Q04DX003 (ip), vehicle: water): 172 % of control
- T/C (dose: 200.0 micrograms/kg/injection, schedule: Q01DX001 (ip), vehicle: saline): 177 % of control
- T/C (dose: 200.0 micrograms/kg/injection, schedule: Q01DX010 (ip), vehicle: saline): 110 % of control
- T/C (dose: 200.0 micrograms/kg/injection, schedule: Q04DX003 (ip), vehicle: saline): 200 % of control
- T/C (dose: 300.0 micrograms/kg/injection, schedule: Q04DX003 (ip), vehicle: water): 209 % of control
- T/C (dose: 400.0 micrograms/kg/injection, schedule: Q01DX001 (ip), vehicle: saline): 190 % of control
- T/C (dose: 400.0 micrograms/kg/injection, schedule: Q04DX003 (ip), vehicle: saline): 231 % of control
- T/C (dose: 600.0 micrograms/kg/injection, schedule: Q04DX003 (ip), vehicle: water): 224 % of control

SMILES: O=C1c2ccccc2C(=O)c2c(Nc3ccc(CCO)cc3)ccc(O)c21
- T/C (dose: 100.0 mg/kg/injection, schedule: Q04DX003 (ip), vehicle: Klucel (hydroxypropylcellulose) (HPC)): 100 % of control
- T/C (dose: 200.0 mg/kg/injection, schedule: Q04DX003 (ip), vehicle: Klucel (hydroxypropylcellulose) (HPC)): 100 % of control
- T/C (dose: 400.0 mg/kg/injection, schedule: Q04DX003 (ip), vehicle: Klucel (hydroxypropylcellulose) (HPC)): 111 % of control
